Experimental data reported in US20230150952A1, “TYPE 2 RYANODINE RECEPTOR ACTIVITY INHIBITOR” (JUNTENDO EDUCATIONAL FOUNDATION, priority 2020, published 2023).

Target: type 2 ryanodine receptor (Mus musculus, UniProt E9Q401)
Test: type 2 ryanodine receptor activity inhibitory effect: endoplasmic reticulum Ca2+ (R-CEPIA1er fluorescence) in RyR-expressing HEK293 cells
Assay type: cell-based
Details: final concentration 10^-9 to 10^-4 M; Hill equation fit; ER Ca2+ fluorescence in HEK293 cells
Protocol: The EC50 value of each of the compounds shown in Table 13 with respect to the type 2 ryanodine receptor activity inhibitory effect, was measured in accordance with the following procedure.
cDNA of RyR2 was cloned from the heart muscle of a mouse by a PCR method and introduced into an expression vector (pcDNA5/FRT/TO) for Flp-In T-REX having hygromycin resistance. The vector is a tetracycline-inducible expression (Tet-On) vector and induces expression of RyR in the presence of doxycycline.
Also, R-CEPIA1er described in Nat. Commun., 2014, 5: 4153 was introduced into a neomycin resistant expression vector, pCMV/myc/ER. This vector constantly expresses R-CEPIA1er.
As HEK293 cells, Flp-In T-REX 293 cells corresponding to the Tet-On inducible system were prepared. The cells were cultured in a CO2 incubator at 37° C.
(§1) A pathogenic mutant-type RyR gene was introduced into Flp-In T-REX 293 cells by a lipofection method. The cells were cultured in a medium containing hygromycin for 10 to 14 days to establish a pathogenic mutant RyR stably expressing strain. Into the pathogenic mutant RyR stably expressing strain, an R-CEPIA1er expression vector was introduced by a lipofection method. The strain was cultured in a medium containing G418 to establish a stable dual expression strain expressing a pathogenic mutant-type RyR gene and R-CEPIA1er.
as §1, with “A wild-type” for “A pathogenic mutant-type”, “a” for “a pathogenic mutant”, “the” for “the pathogenic mutant”, “a wild-type” for “a pathogenic mutant-type”
The cultured cells expressing a pathogenic mutant RyR and R-CEPIA1er and the cultured cells expressing wild type RyR and R-CEPIA1er were separately cultured in plastic dishes at 37° C. for 24 hours. Then, the medium was exchanged with a medium containing doxycycline and the cells were further cultured for 24 hours. Fluorescence measurement was carried out by use of FlexStation. R-CEPIA1er was excited at 560 nm to acquire fluorescence at 610 nm. Fluorescence was acquired every 10 seconds for 300 seconds. The compounds shown in Table 13 each were added 60 seconds after initiation, and Ca^2+ concentration in the fluorescent endoplasmic reticulum was measured.
Inhibitory effects of the compounds on type 2 ryanodine receptor activity shown in Table 13 each were measured in the range of a final concentration of 10^−9 to 10^−4 M by the methods above. Based on the measurement results, a dose-response curve approximating the Hill equation was obtained by the least squares method. In this manner, EC50 values were calculated.

Sequence of type 2 ryanodine receptor (E9Q401 whole entry): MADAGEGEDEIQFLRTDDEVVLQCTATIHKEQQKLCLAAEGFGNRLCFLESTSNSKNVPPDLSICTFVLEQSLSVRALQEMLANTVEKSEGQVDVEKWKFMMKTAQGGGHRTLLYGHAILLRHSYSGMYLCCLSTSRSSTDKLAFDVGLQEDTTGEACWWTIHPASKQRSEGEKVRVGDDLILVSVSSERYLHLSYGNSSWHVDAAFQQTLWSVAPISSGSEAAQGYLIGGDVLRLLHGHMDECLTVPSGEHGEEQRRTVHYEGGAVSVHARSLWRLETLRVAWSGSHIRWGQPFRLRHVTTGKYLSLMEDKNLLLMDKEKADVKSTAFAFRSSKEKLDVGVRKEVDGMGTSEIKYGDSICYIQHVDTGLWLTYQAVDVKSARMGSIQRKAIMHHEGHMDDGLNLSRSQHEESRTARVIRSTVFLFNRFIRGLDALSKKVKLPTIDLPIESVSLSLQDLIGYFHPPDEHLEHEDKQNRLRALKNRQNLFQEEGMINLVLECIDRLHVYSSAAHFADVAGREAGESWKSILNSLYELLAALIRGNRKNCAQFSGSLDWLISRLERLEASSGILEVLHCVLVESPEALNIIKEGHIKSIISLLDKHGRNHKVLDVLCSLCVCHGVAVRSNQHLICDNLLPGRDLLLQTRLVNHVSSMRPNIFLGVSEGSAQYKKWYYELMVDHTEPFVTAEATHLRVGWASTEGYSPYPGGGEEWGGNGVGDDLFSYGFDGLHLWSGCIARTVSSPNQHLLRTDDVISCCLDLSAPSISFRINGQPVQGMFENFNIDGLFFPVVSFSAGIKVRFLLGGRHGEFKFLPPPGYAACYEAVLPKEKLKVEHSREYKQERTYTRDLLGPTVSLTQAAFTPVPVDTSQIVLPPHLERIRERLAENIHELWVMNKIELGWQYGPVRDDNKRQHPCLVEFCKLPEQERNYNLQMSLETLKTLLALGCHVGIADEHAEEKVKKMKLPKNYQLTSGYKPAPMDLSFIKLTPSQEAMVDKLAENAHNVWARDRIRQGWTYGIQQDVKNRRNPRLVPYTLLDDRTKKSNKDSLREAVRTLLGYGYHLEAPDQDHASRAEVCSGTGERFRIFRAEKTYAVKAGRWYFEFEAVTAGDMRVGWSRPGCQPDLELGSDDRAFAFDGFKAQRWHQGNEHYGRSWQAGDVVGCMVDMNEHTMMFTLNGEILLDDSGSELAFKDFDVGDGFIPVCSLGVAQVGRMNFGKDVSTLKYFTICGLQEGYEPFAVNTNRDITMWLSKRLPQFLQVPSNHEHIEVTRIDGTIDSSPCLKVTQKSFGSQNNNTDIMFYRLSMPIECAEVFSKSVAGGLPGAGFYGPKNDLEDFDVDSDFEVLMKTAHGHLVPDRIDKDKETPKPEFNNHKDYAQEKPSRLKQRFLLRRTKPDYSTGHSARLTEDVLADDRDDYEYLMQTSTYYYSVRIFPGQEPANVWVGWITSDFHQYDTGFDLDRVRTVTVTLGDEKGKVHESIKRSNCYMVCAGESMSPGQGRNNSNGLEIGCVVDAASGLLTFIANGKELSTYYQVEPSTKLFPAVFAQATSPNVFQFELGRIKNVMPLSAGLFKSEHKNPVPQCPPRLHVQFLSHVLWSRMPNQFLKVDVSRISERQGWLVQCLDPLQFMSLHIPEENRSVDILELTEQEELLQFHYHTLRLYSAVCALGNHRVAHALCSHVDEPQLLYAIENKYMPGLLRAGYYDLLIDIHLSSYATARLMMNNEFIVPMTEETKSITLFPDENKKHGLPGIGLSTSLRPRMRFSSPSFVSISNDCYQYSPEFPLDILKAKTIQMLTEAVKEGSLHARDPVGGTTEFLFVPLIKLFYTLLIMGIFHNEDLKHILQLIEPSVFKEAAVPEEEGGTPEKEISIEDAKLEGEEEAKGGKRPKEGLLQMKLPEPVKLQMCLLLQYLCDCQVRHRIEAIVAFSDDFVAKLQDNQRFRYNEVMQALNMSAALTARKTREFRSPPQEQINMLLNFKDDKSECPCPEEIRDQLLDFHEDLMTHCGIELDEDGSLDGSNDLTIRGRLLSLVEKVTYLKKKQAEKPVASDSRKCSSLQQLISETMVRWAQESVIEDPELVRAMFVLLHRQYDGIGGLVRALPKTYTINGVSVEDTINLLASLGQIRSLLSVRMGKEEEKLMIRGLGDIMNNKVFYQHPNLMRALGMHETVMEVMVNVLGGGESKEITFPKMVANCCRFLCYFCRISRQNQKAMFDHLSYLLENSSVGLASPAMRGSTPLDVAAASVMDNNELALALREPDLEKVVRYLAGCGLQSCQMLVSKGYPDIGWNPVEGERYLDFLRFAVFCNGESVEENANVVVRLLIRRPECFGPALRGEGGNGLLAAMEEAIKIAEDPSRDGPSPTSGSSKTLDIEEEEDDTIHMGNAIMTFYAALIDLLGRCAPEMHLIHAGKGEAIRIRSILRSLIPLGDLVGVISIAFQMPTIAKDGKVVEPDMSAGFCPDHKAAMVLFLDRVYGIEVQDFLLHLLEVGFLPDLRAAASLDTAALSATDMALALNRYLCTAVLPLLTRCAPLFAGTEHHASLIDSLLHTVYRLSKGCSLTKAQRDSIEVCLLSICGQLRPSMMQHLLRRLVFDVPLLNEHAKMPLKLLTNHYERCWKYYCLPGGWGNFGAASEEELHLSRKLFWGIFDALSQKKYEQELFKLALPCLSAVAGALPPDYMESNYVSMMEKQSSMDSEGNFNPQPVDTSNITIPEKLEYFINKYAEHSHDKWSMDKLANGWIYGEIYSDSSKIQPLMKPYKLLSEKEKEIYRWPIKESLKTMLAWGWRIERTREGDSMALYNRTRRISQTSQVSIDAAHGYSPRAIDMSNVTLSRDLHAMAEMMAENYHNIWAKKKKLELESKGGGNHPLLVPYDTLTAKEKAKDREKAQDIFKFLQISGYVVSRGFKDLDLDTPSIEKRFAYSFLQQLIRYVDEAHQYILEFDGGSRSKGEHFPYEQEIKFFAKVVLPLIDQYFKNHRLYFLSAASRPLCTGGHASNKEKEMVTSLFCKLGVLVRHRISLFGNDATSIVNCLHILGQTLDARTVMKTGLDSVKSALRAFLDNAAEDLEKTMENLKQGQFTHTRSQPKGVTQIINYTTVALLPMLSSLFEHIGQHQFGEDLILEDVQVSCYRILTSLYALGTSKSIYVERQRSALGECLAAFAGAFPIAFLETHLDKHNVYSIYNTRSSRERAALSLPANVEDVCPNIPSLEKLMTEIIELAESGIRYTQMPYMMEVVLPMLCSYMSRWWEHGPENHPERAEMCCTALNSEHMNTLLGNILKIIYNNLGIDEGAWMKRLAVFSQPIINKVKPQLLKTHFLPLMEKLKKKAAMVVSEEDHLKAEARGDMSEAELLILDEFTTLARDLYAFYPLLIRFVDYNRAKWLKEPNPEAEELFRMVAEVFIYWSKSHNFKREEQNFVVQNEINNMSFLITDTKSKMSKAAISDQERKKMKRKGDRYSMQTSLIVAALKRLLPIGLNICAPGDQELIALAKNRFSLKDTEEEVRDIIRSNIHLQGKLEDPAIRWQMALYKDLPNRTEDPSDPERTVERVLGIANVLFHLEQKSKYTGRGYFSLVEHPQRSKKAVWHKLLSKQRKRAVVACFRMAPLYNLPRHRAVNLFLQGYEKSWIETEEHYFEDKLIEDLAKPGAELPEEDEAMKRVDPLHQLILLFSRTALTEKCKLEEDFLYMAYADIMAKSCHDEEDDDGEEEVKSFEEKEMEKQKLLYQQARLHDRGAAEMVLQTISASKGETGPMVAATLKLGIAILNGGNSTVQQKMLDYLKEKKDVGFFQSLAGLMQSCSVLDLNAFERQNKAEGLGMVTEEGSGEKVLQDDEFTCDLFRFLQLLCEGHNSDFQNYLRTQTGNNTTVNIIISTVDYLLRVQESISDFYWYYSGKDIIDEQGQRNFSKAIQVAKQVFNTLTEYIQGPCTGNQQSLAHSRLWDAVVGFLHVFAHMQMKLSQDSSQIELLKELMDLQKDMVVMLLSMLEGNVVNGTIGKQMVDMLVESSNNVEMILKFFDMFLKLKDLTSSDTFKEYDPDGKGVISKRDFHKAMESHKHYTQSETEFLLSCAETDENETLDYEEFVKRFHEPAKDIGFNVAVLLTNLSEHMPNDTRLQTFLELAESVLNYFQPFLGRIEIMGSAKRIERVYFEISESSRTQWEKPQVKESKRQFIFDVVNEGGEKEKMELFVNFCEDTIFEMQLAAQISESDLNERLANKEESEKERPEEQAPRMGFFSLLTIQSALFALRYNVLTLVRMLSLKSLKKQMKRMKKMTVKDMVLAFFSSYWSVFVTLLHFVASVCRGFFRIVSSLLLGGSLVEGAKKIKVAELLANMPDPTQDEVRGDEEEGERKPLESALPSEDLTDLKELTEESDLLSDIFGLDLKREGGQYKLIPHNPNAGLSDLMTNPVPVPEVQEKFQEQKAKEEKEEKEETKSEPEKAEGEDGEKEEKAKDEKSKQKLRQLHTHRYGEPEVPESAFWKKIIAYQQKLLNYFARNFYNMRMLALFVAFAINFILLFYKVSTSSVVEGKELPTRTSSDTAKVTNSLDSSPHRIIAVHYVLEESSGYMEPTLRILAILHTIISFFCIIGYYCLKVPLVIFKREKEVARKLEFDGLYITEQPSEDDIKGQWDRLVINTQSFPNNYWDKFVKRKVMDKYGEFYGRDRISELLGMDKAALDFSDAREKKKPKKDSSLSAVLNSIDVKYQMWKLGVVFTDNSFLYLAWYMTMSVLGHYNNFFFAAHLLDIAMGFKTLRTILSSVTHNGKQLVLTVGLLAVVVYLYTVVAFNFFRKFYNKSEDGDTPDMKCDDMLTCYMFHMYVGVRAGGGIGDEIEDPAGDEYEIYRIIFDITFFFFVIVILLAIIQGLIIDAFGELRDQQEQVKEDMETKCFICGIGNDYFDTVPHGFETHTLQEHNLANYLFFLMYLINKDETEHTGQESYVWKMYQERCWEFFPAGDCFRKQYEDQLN

SMILES | EC50 [nM]
Cc1cccc(N(C)C(=O)Cn2nnc(-c3ccccc3)n2)c1 [Compound 37] | 606
Cc1ccc(N(C)C(=O)Cn2nnc(-c3ccccc3)n2)cc1 [Compound 38] | 2770
COc1cccc(N(C)C(=O)Cn2nnc(-c3ccccc3)n2)c1 [Compound 40] | 8310
COc1ccc(N(C)C(=O)Cn2nnc(-c3ccccc3)n2)cc1 [Compound 41] | 154
COc1ccccc1-c1nnn(CC(=O)N(C)c2ccccc2)n1 [Compound 45] | 3370
COc1ccc(N(C)C(=O)Cn2nnc(-c3cccc(OC)c3)n2)cc1 [Compound 48] | 43
COc1ccc(N(C)C(=O)Cn2nnc(-c3cccc(F)c3)n2)cc1 [Compound 50] | 36
COc1cccc(-c2nnn(CC(=O)N(C)c3ccc4c(c3)OCO4)n2)c1 [Compound 54] | 48
CCN(C(=O)Cn1nnc(-c2ccccc2)n1)c1ccc(F)cc1 [Compound 60] | 768
CCN(C(=O)Cn1nnc(-c2ccc(OC(F)(F)F)cc2)n1)c1ccc(F)cc1 [Compound 63] | 1050
CCCN(C(=O)Cn1nnc(-c2ccccc2)n1)c1ccccc1 [Compound 66] | 39500
COc1cccc(-c2nnn(CC(=S)N(C)c3ccc(F)cc3)n2)c1 [Compound 68] | 31

Further molecules by falling EC50, results first:

EC50 [nM] | SMILES
44200 | CCN(C(=O)Cn1nnc(-c2ccccc2)n1)c1ccc(OC(F)(F)F)cc1 [Compound 61]
5460 | CCN(C(=O)Cn1nnc(-c2ccccc2)n1)c1ccccc1 [Compound 58]
2680 | CCN(C(=O)Cn1nnc(-c2ccc(OC)cc2)n1)c1ccc(OC)cc1 [Compound 62]
1360 | CCN(C(=O)Cn1nnc(-c2ccccc2)n1)c1ccc(OC)cc1 [Compound 59]
1250 | COc1ccc(-c2nnn(CC(=O)N(C)c3ccccc3)n2)cc1 [Compound 47]
676 | CN(C(=O)Cn1nnc(-c2ccccc2)n1)c1ccccc1 [Compound 35]
147 | COc1cccc(-c2nnn(CC(=O)N(C)c3ccccc3)n2)c1 [Compound 46]
51 | COc1cccc(-c2nnn(CC(=O)N(C)c3ccc(F)c(OC)c3)n2)c1 [Compound 53]
49 | CN(C(=O)Cn1nnc(-c2cccc(F)c2)n1)c1ccc(F)cc1 [Compound 51]
44 | COc1cccc(-c2nnn(CC(=O)N(C)c3ccc(F)cc3)n2)c1 [Compound 49]
41 | COc1ccc(N(C)C(=S)Cn2nnc(-c3cccc(OC)c3)n2)cc1 [Compound 67]
39 | COc1ccc(N(C)C(=S)Cn2nnc(-c3cccc(F)c3)n2)cc1 [Compound 69]
33 | CN(C(=S)Cn1nnc(-c2cccc(F)c2)n1)c1ccc(F)cc1 [Compound 70]
15 | CN(C(=O)Cn1nnc(-c2cc(F)cc(F)c2)n1)c1ccc(F)cc1 [Compound 57]

Tested on: mouse having RyR2 I4093V mutation
Test: electrocardiogram of RyR2 mutation-harboring mouse before and after intraperitoneal administration
Assay type: in vivo
Details: 0.3 mg/kg intraperitoneal; 5-15 minutes after administration; FIG. 2
Source text: In Riken BRC, male mice administered with N-ethyl-N-nitrosourea (ENU) were crossed with normal wild type females to obtain child mice (First generation: G1). These G1 mice were subjected to systematic phenotypic screening. […] As a result, a mouse having RyR2 I4093V mutation (RyR2 c.12277A>G (NM_023868.2) p.I4093V (NP_076357.2)) was found. The mouse was backcrossed with a normal wild type mouse (8 generations or more). As a result, mice conceivably having a mutation of RyR2 I4093V alone were obtained.
Compound 57 shown in Table 10 was dissolved in saline (0.9% aqueous NaCl solution) to prepare a 0.03-0.1 mg/mL solution containing compound 57. • (3) Measurement of Electrocardiogram of RyR2 Mutation-Harboring Mouse and Administration of Drug
The aforementioned mutant mice of 4-5 months old were subjected to anesthesia induction with 2% isoflurane. While maintaining the anesthetic state with 1% isoflurane, electrodes for electrocardiogram were attached to four limbs and electrocardiographical monitoring was continuously carried out. Before drug administration, electrocardiographical monitoring was carried out for 10 minutes. Then, the solution containing compound 57 prepared above was intraperitoneally injected so as to have a concentration of 0.3 mg/kg or 1 mg/kg. The electrocardiogram was recorded for further 15 minutes.
The time during which successive bigeminal pulse, trigeminal pulse or ventricular tachycardia (regarded as arrhythmia) occurred during 5-15 minutes after administration of compound 57, were summed up per individual and the ratio of time when arrhythmia occurs was obtained.

SMILES | occurrence of arrhythmia (ratio of time when arrhythmia occurs)
CN(C(=O)Cn1nnc(-c2cc(F)cc(F)c2)n1)c1ccc(F)cc1 [Compound 57] | low

Same assay, conditions: 0.3 mg/kg intraperitoneal; RyR2 I4093V mice; FIG. 1

SMILES | ECG (bidirectional ventricular tachycardia before administration)
CN(C(=O)Cn1nnc(-c2cc(F)cc(F)c2)n1)c1ccc(F)cc1 [Compound 57] | went back to normal

Same assay, conditions: 1 mg/kg intraperitoneal; 5-15 minutes after administration; FIG. 2

SMILES | occurrence of arrhythmia (ratio of time when arrhythmia occurs)
CN(C(=O)Cn1nnc(-c2cc(F)cc(F)c2)n1)c1ccc(F)cc1 [Compound 57] | low
